Publication doi:10.1101/2025.03.30.646141v1 (biorxiv, 2025)

Legend:
[1] = target: T1, APH(3’)-IIb WT (Pseudomonas aeruginosa, UniProt Q9HWR2); assay: ITC; type: binding
T1 sequence (Q9HWR2 1-268): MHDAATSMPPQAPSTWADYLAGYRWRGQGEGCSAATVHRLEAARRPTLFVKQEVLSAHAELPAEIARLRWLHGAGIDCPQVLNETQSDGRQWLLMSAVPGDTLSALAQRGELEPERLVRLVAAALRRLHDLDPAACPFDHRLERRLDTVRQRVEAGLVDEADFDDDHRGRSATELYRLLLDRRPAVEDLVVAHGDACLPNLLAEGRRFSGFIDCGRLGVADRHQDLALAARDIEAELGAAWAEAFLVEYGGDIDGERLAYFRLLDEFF

[2] = target: T1, APH(3’)-IIb WT; assay: biochemical
[3] = target: T2, APH(3’)-IIb WT (Pseudomonas aeruginosa, UniProt Q9HWR2, M95L); assay: PK/LDH coupled assay; type: biochemical; conditions: 100 µM MgATP, Tris buffer pH 7.5, 25 °C
T2 sequence (Q9HWR2 1-268 M95L): T1 sequence (Q9HWR2 1-268)

Compound	Kd [1]	Kd [2]	Km [3]
Nc1ncnc2c1ncn2[C@@H]1O[C@H](COP(=O)(O)OP(=O)(O)O)[C@@H](O)[C@H]1O [ADP]	4100 ± 500 nM	–	–
Nc1ncnc2c1ncn2[C@@H]1O[C@H](COP(=O)(O)OP(=O)(O)OP(=O)(O)O)[C@@H](O)[C@H]1O [ATP]	10000 ± 700 nM	–	–
CN[C@@H]1[C@@H](O)[C@@H](O[C@@H]2[C@@H](O)[C@H](O[C@H]3O[C@H]([C@@H](C)O)[C@@H](O)[C@H](O)[C@H]3N)[C@@H](N)C[C@H]2N)OC[C@]1(C)O [Geneticin]	–	1590 ± 310 nM	–
NCC[C@H](O)C(=O)N[C@@H]1C[C@H](N)[C@@H](O[C@H]2O[C@H](CN)[C@@H](O)[C@H](O)[C@H]2O)[C@H](O)[C@H]1O[C@H]1O[C@H](CO)[C@@H](O)[C@H](N)[C@H]1O [amikacin]	177000 ± 22000 nM	–	54.5 ± 21.5 µM
CNC(C)[C@@H]1CC[C@@H](N)[C@@H](O[C@H]2[C@H](O)[C@@H](O[C@H]3OC[C@](C)(O)[C@H](NC)[C@H]3O)[C@H](N)C[C@@H]2N)O1 (stereo partly shown) [gentamicin]	–	59 ± 5 nM	–
NC[C@H]1O[C@H](O[C@H]2[C@H](O)[C@@H](O[C@H]3O[C@H](CO)[C@@H](O)[C@H](N)[C@H]3O)[C@H](N)C[C@@H]2N)[C@H](O)[C@@H](O)[C@@H]1O [kanamycin A]	–	–	0.17 ± 0.06 µM
NC[C@H]1O[C@H](O[C@H]2[C@H](O)[C@@H](O[C@H]3O[C@H](CO)[C@@H](O)[C@H](N)[C@H]3O)[C@H](N)C[C@@H]2N)[C@H](N)[C@@H](O)[C@@H]1O [kanamycin B]	2 ± 1 nM	–	0.05 ± 0.03 µM
NC[C@@H]1O[C@H](O[C@H]2[C@@H](O)[C@H](O[C@@H]3[C@@H](O)[C@H](N)C[C@H](N)[C@H]3O[C@H]3O[C@H](CN)[C@@H](O)[C@H](O)[C@H]3N)O[C@@H]2CO)[C@H](N)[C@@H](O)[C@@H]1O [neomycin]	12 ± 2 nM	–	0.07 ± 0.06 µM
NC[C@@H]1O[C@H](O[C@H]2[C@@H](O)[C@H](O[C@@H]3[C@@H](O)[C@H](N)C[C@H](N)[C@H]3O[C@H]3O[C@H](CO)[C@@H](O)[C@H](O)[C@H]3N)O[C@@H]2CO)[C@H](N)[C@@H](O)[C@@H]1O [paromomycin]	173 ± 8 nM	–	0.53 ± 0.21 µM
NC[C@H]1O[C@H](O[C@H]2[C@H](O[C@@H]3O[C@H](CO)[C@@H](O)[C@H]3O)[C@@H](O)[C@H](N)C[C@@H]2N)[C@H](N)[C@@H](O)[C@@H]1O [ribostamycin]	10 ± 1 nM	–	0.21 ± 0.17 µM
NC[C@H]1O[C@H](O[C@H]2[C@H](O)[C@@H](O[C@H]3O[C@H](CO)[C@@H](O)[C@H](N)[C@H]3O)[C@H](N)C[C@@H]2N)[C@H](N)C[C@@H]1O [tobramycin]	23 nM	–	–
